{
  "source": "patent US20080166805A1",
  "about": "“Culturing human cells and tissues in an N-glycolylneuraminic acid-free environment” (The Regents of the University of California, priority 2005, published 2008)",
  "system": "Caco-2 cells",
  "assay": "Endocytosis inhibition experiments (Neu5Gc uptake in Caco-2 cells)",
  "format": "cell-based, human",
  "settings": "2 h pre-treatment with drug, then 3 mM Neu5Gc",
  "experimental": "The sonicate was centrifuged at 75×g for 15 min., and the pellet obtained consisted primarily of nuclei and unbroken cells. […] A portion (20%) of the “total homogenate” fraction was taken for protein quantification and Sia analysis by DMB derivatization and HPLC analysis (as discussed below.) The remainder was centrifuged at 100,000×g for 1 h. The resulting pellet, called the “membrane” fraction, was then resuspended by sonication (15 sec.) in 200 μl of sodium acetate buffer, pH 5.5. The 100,000×g supernatant, called the “soluble” fraction was adjusted to 90% ethanol using absolute ice-cold ethanol, and placed overnight at −20° C. The flocculant precipitate, which represents the “soluble protein” fraction, was washed 3 times with 90% ice-cold ethanol and then resuspended in 200 μl of water. The supernatant fluid representing the cytosolic low molecular weight (LMW) fraction was dried and brought up in 100 μL with water prior to Sia analysis. All the Sias in these fractions were released with mild acid hydrolysis if necessary and then analyzed by HPLC after DMB derivatization. Protein quantification was performed on the total homogenate, membrane and soluble protein fractions by using the BCA protein assay kit from Pierce (Rockford, Ill.) In some experiments, the resulting data obtained for the Sia bound to the membrane fraction and to the soluble proteins were pooled and presented here as a High Molecular Weight (HMW) fraction. Sialic Acid Release, DMB Derivatization and HPLC Analysis—The bound Sias from the total homogenate, membrane and soluble protein fractions were released using 2M acetic acid hydrolysis, 3 h. at 80° C. The released Sias, or free Sias, contained in the soluble LMW fraction were passed through a Microcon® YM-10 filter (Millipore, Bedford, Mass.) prior to DMB derivatization, which was done according to Hara et al., 1989. […] The eluant was monitored by fluorescence. Quantification of Sias—For all HPLC chromatograms, the quantification of Sias was done by comparison with known quantities of DMB derivatized Neu5Gc and Neu5Ac used as standards and then reported in terms of pmoles of Sia. For total homogenate, membrane and cytosolic protein fractions, this number was expressed per mg of protein. Due to minor sample-to-sample variations in amounts and recoveries, the data in the Figures is presented as percent of Neu5Gc over total Sias, rather than as absolute amounts. Endocytosis Inhibition Experiments—Caco-2 or normal fibroblast cells were split and cultured in alpha-MEM media supplemented respectively with 20% or 15% human serum for 4 days before starting the endocytosis drug inhibition experiments in order to deplete any Neu5Gc derived from FCS. Cells were then pre-treated for 2 h. with the specific inhibitors under the same culture conditions. Fresh media containing the same amount of inhibitor and 3 mM of Neu5Gc was then added to the cells, which were incubated for 16 h or 3 days and finally harvested and fractionated as described above.",
  "data": [
    {"smiles": "N=C(N)NC(=O)c1nc(Cl)c(N)nc1N", "note": "[amiloride]", "values": [
      {"measurement": "Neu5Gc incorporation into membrane-bound glycoconjugates in the presence of inhibitor (percent of total Sia)", "value": 10, "unit": "%"}
    ]},
    {"smiles": "CN(C)CCCN1c2ccccc2Sc2ccc(Cl)cc21", "note": "[chlorpromazine]", "values": [
      {"measurement": "Neu5Gc incorporation into membrane-bound glycoconjugates in the presence of inhibitor (percent of total Sia)", "value": 50, "unit": "%"}
    ]},
    {"smiles": "O=c1c(-c2ccc(O)cc2)coc2cc(O)cc(O)c12", "note": "[genistein]", "values": [
      {"measurement": "Neu5Gc incorporation into membrane-bound glycoconjugates in the presence of inhibitor (percent of total Sia)", "value": 34, "unit": "%"},
      {"measurement": "incorporation of Neu5Gc in the TH fraction in the presence of inhibitor (percent of total Sia)", "value": 51, "unit": "%"}
    ]},
    {"smiles": "C[C@@H]1[C@H](O)[C@@H](C)/C=C/C=C/CC/C=C/C=C/C=C/C=C/C(O[C@H]2O[C@H](C)[C@@H](O)[C@H](N)[C@@H]2O)CC2O[C@](O)(CC(O)C(O)CCC(O)CC(O)CC(O)CC(=O)O[C@H]1C)CC(O)C2C(=O)O", "note": "(stereo partly drawn) [nystatin]", "values": [
      {"measurement": "Neu5Gc incorporation into membrane-bound glycoconjugates in the presence of inhibitor (percent of total Sia)", "value": 44, "unit": "%"},
      {"measurement": "incorporation of Neu5Gc in the TH fraction in the presence of inhibitor (percent of total Sia)", "value": "~65", "unit": "%"}
    ]}
  ]
}
